Data published in PubChem BioAssay (NCI).
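Growth conditions: 96-well plates. Treatment: test compound, 48 hours, 5 concentrations. Analysis: linear interpolation between bracketing concentrations; unreached endpoints set to highest concentration. TGI is the concentration that stops growth completely.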

Assays:
Assay in all cases: NCI tumour cell line growth inhibition, 48 h
UO-31 renal = tested on: UO-31 renal
A549 NSCLC = tested on: A549 NSCLC
SNB-19 CNS = tested on: SNB-19 CNS
NCI-H23 lung = tested on: NCI-H23 lung
HT29 colon = tested on: HT29 colon
KM12 colon = tested on: KM12 colon
U251 CNS = tested on: U251 CNS
MOLT-4 leukemia = tested on: MOLT-4 leukemia
CCRF-CEM leukemia = tested on: CCRF-CEM leukemia
RXF 393 renal = tested on: RXF 393 renal
SF-539 CNS = tested on: SF-539 CNS
HCT-15 colon = tested on: HCT-15 colon
MALME-3M melanoma = tested on: MALME-3M melanoma
LOX IMVI melanoma = tested on: LOX IMVI melanoma
NCI/ADR-RES ovarian = tested on: NCI/ADR-RES ovarian
HOP-92 NSCLC = tested on: HOP-92 NSCLC
SF-268 CNS = tested on: SF-268 CNS
SK-OV-3 ovarian = tested on: SK-OV-3 ovarian
SW-620 colon = tested on: SW-620 colon
SNB-75 CNS = tested on: SNB-75 CNS

COc1cc(-c2coc3c(OC)c(OC4OC(COC5OC(C)C(O)C(O)C5O)C(O)C(O)C4O)c(OC)c(O)c3c2=O)cc(C)c1O (stereo not given)
TGI (UO-31 renal): 50.5 µM
TGI (A549 NSCLC): > 100 µM
TGI (SNB-19 CNS): 30.3 µM
TGI (NCI-H23 lung): 32.4 µM
TGI (HT29 colon): 43.5 µM
TGI (KM12 colon): 29.3 µM
TGI (U251 CNS): 32.9 µM
TGI (MOLT-4 leukemia): 19.4 µM
TGI (CCRF-CEM leukemia): > 100 µM
TGI (RXF 393 renal): 32.5 µM
TGI (SF-539 CNS): 39 µM
TGI (HCT-15 colon): 40.9 µM
TGI (MALME-3M melanoma): 33.9 µM
TGI (LOX IMVI melanoma): 45.3 µM
TGI (NCI/ADR-RES ovarian): 52.5 µM
TGI (HOP-92 NSCLC): 65 µM
TGI (SF-268 CNS): 62.2 µM
TGI (SK-OV-3 ovarian): 60.3 µM
TGI (SW-620 colon): 30.9 µM
TGI (SNB-75 CNS): 69.6 µM

CC(=O)OC1C(O)C(C)OC(OC(=O)C2CCC3C(C2)OC2(CC(OC(=O)/C=C/c4ccccc4)C(C)CO2)C32CO2)C1OC1OC(C)C(O)C(O)C1O (stereo not given)
TGI (UO-31 renal): 33.2 µM
TGI (A549 NSCLC): 1.3 µM
TGI (SNB-19 CNS): 0.0909 µM
TGI (NCI-H23 lung): 0.22 µM
TGI (HT29 colon): 0.576 µM
TGI (KM12 colon): 0.144 µM
TGI (U251 CNS): 0.12 µM
TGI (MOLT-4 leukemia): 5.05 µM
TGI (CCRF-CEM leukemia): 1.26 µM
TGI (RXF 393 renal): 0.208 µM
TGI (SF-539 CNS): 0.105 µM
TGI (HCT-15 colon): 39.2 µM
TGI (MALME-3M melanoma): 0.093 µM
TGI (LOX IMVI melanoma): 0.362 µM
TGI (NCI/ADR-RES ovarian): 146 µM
TGI (HOP-92 NSCLC): 0.0396 µM
TGI (SF-268 CNS): 0.15 µM
TGI (SK-OV-3 ovarian): 0.213 µM
TGI (SW-620 colon): 0.568 µM
TGI (SNB-75 CNS): 0.135 µM
